Among the data in PubChem BioAssay AID248 (DTP/NCI, 2004) are T/C values, retold here.

Values joined by “and” are separate entries in the source; they are usually repeats but may differ in a detail not shown here. Equal values may be shown once. Inconclusive results and toxic doses are left out.

In this assay the test system is L1210 leukemia ip in BDF1 mice, survival T/C. The experiment in a line: NCI In Vivo Anticancer Drug Screen. Data for tumor model L1210 Leukemia (intraperitoneal) in B6D2F1 (BDF1) mice. The conditions noted are these: endpoint: mean survival time, higher = longer survival. The method, boiled down: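 Value reflects the ratio of survival in compound-treated mice to survival in vehicle-treated controls, with both groups carrying the same transplanted tumor.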

[1] abbreviates: dose: 100.0 mg/kg/injection, schedule: Q01DX001 (ip), vehicle: saline.
The mark [2] stands for this setting: dose: 100.0 mg/kg/injection, schedule: Q01DX009 (ip), vehicle: saline.
Setting [3] is: dose: 200.0 mg/kg/injection, schedule: Q01DX001 (ip), vehicle: saline.
Where [4] appears, read: dose: 400.0 mg/kg/injection, schedule: Q01DX001 (ip), vehicle: saline.
Where [5] appears, read: dose: 100.0 mg/kg/injection, schedule: Q01DX001 (ip), vehicle: carboxymethylcellulose (CMC).
The mark [6] stands for this setting: dose: 200.0 mg/kg/injection, schedule: Q01DX001 (ip), vehicle: carboxymethylcellulose (CMC).
The mark [7] stands for this setting: dose: 400.0 mg/kg/injection, schedule: Q01DX001 (ip), vehicle: carboxymethylcellulose (CMC).
[8] abbreviates: dose: 100.0 mg/kg/injection, schedule: Q01DX009 (ip), vehicle: saline with Tween-80.
The mark [9] stands for this setting: dose: 400.0 mg/kg/injection, schedule: Q01DX009 (ip), vehicle: saline with Tween-80.
Setting [10] is: dose: 100.0 mg/kg/injection, schedule: Q04DX002 (ip), vehicle: Klucel (hydroxypropylcellulose) (HPC).
The mark [11] stands for this setting: dose: 200.0 mg/kg/injection, schedule: Q04DX002 (ip), vehicle: Klucel (hydroxypropylcellulose) (HPC).
The mark [12] stands for this setting: dose: 400.0 mg/kg/injection, schedule: Q04DX002 (ip), vehicle: Klucel (hydroxypropylcellulose) (HPC).

On to `NC(N)=N/N=C(/c1ccccc1)c1ccccc1N`, for which the T/C was 105 % of control (dose: 15.0 mg/kg/injection, schedule: Q01DX Z (ip), vehicle: methylcellulose (MC)); 102 % of control (dose: 30.0 mg/kg/injection, schedule: Q01DX Z (ip), vehicle: methylcellulose (MC)); 105 % of control (dose: 60.0 mg/kg/injection, schedule: Q01DX Z (ip), vehicle: methylcellulose (MC)); 97 % of control (dose: 120.0 mg/kg/injection, schedule: Q01DX Z (ip), vehicle: methylcellulose (MC)); 88 % of control (dose: 120.0 mg/kg/injection, schedule: Q01DX Z (oral), vehicle: methylcellulose (MC)); 88 % of control (dose: 240.0 mg/kg/injection, schedule: Q01DX Z (ip), vehicle: methylcellulose (MC)). In addition, the T/C (dose: 240.0 mg/kg/injection, schedule: Q01DX Z (oral), vehicle: methylcellulose (MC)) was 98 % of control and the T/C (dose: 480.0 mg/kg/injection, schedule: Q01DX Z (oral), vehicle: methylcellulose (MC)) was 101 % of control.

`CNc1nc(Cl)cc2c1ncn2C1OC(CO)C(O)C1O` (stereo not drawn): the T/C (dose: 100.0 mg/kg/injection, schedule: Q01DX005 (ip), vehicle: saline) was 100 % of control and the T/C (dose: 200.0 mg/kg/injection, schedule: Q01DX005 (ip), vehicle: saline) was 100 % of control.

Regarding `COC(=O)C1C(C(=O)OC)C2C3OC(=O)C(C2C(=O)OC)C1C3C` (stereo not drawn), the T/C under setting [1] was 103 % of control; the T/C under setting [2] is 100 % of control; the T/C under setting [3] was 98 % of control; the T/C (dose: 200.0 mg/kg/injection, schedule: Q01DX009 (ip), vehicle: saline) is 103 % of control; the T/C under setting [4] is 101 % of control; the T/C (dose: 400.0 mg/kg/injection, schedule: Q01DX009 (ip), vehicle: saline) was 87 % of control.

For `CCOC(=O)c1ccc2c(c1)C(=O)c1cc([N+](=O)[O-])ccc1-2`, the T/C reads like this: under setting [5], 96 % of control; under setting [6], 96 % of control; under setting [7], 96 % of control.

Consider `COc1ccc(-c2nc(-c3cccc(O)c3)[nH]c2-c2ccc(OC)cc2)cc1`, for which the T/C is, setting by setting: under setting [8], 93 % of control; (dose: 200.0 mg/kg/injection, schedule: Q01DX009 (ip), vehicle: saline with Tween-80) 98 % of control; under setting [9], 105 % of control.

In the case of `O=C(O)Cc1nc2ccccc2n1CC(=O)O`, the T/C is 96 % of control under setting [10], 93 % of control under setting [11] and 100 % of control under setting [12].

As to `CC(=O)Nc1ccc(C(=O)N=C(C2CCCC2)N2CCCC2)cc1`, the T/C under setting [1] is 96 % of control, the T/C under setting [3] was 100 % of control and the T/C under setting [4] is 105 % of control.

As for `CCOC(=O)/C(C#N)=C\c1cc(O)c(O)c(OC)c1`, the T/C (dose: 50.0 mg/kg/injection, schedule: Q01DX001 (ip), vehicle: carboxymethylcellulose (CMC)) was 100 % of control; the T/C under setting [5] is 92 % of control; the T/C under setting [6] was 97 % of control; the T/C under setting [7] was 103 % of control.

As for `O=c1ccn(CCC(CO)CO)c(=O)[nH]1`, the T/C is, setting by setting: (dose: 100.0 mg/kg/injection, schedule: Q04DX003 (ip), vehicle: saline) 101 % of control; (dose: 200.0 mg/kg/injection, schedule: Q04DX003 (ip), vehicle: saline) 106 % of control; (dose: 400.0 mg/kg/injection, schedule: Q04DX003 (ip), vehicle: saline) 102 % of control.

Turning to `COc1cc(NC(=O)Nc2ccc(F)c(Cl)c2)c(OC)cc1Cl`, the T/C under setting [10] is 100 % of control, the T/C under setting [11] is 93 % of control and the T/C under setting [12] is 86 % of control.

`CCCS(=O)(=O)N1CCCCC1`: the T/C is, setting by setting: under setting [10], 102 % of control; under setting [11], 94 % of control; under setting [12], 102 % of control.

Turning to `CC(c1ccc([N+](=O)[O-])cc1)n1cnc2c(N(CCO)CCO)ncnc21` (stereo not drawn), the T/C under setting [1] was 104 % of control, the T/C under setting [3] was 103 % of control and the T/C under setting [4] is 103 % of control.

For the molecule `COc1ccc2c(c1O)C13C=C(C)C(=O)CC1C(C2)N(C)CC3` (stereo not drawn), the T/C (dose: 75.0 mg/kg/injection, schedule: Q01DX001 (ip), vehicle: saline) was 106 % of control.

As for `CN(N=O)C(=O)NCC1OC(OC2(CO)OC(CNC(=O)N(C)N=O)C(O)C2O)C(O)C(O)C1O` (stereo not drawn), the T/C is 107 % of control (dose: 50.0 mg/kg/injection, schedule: Q01DX009 (ip), vehicle: saline with Tween-80); 91 % of control (dose: 50.0 mg/kg/injection, schedule: Q01DX009 (ip), vehicle: saline); 121 % of control under setting [8]; 109 % of control under setting [2]; 154 % of control under setting [9].

As for `OCc1cnc[nH]1`, the T/C reads like this: (dose: 3.0 mg/kg/injection, schedule: Q04DX002 (ip), vehicle: saline) 123 % of control; (dose: 6.0 mg/kg/injection, schedule: Q04DX002 (ip), vehicle: saline) 97 % of control; (dose: 12.0 mg/kg/injection, schedule: Q04DX002 (ip), vehicle: saline) 94 % of control; (dose: 25.0 mg/kg/injection, schedule: Q04DX002 (ip), vehicle: saline) 97 % of control and 121 % of control; (dose: 50.0 mg/kg/injection, schedule: Q04DX002 (ip), vehicle: saline) 105 % of control.

As to `COc1cc([C@@H]2c3cc4c(cc3[C@H](O)[C@H]3COC(=O)[C@H]23)OCO4)cc(OC)c1OC`, the T/C is 95 % of control (dose: 0.14 mg/kg/injection, schedule: Q01DX Z (ip), vehicle: carboxymethylcellulose (CMC)); 101 % of control (dose: 0.27 mg/kg/injection, schedule: Q01DX Z (ip), vehicle: carboxymethylcellulose (CMC)); 108 % of control (dose: 0.54 mg/kg/injection, schedule: Q01DX Z (ip), vehicle: carboxymethylcellulose (CMC)); 105 % of control and 120 % of control (dose: 1.08 mg/kg/injection, schedule: Q01DX Z (ip), vehicle: carboxymethylcellulose (CMC)); 110 % of control (dose: 1.62 mg/kg/injection, schedule: Q01DX Z (ip), vehicle: carboxymethylcellulose (CMC)); 95 % of control (dose: 2.16 mg/kg/injection, schedule: Q01DX Z (ip), vehicle: carboxymethylcellulose (CMC)). Moreover, the T/C runs as follows: (dose: 15.0 mg/kg/injection, schedule: Q01DX001 (ip), vehicle: carboxymethylcellulose (CMC)) 117 % of control; (dose: 30.0 mg/kg/injection, schedule: Q01DX001 (ip), vehicle: carboxymethylcellulose (CMC)) 111 % of control; (dose: 60.0 mg/kg/injection, schedule: Q01DX001 (ip), vehicle: carboxymethylcellulose (CMC)) 88 % of control.

For the molecule `O=[N+]([O-])c1ccc(Cc2ccccc2)cc1` (tested in a mixture with another compound), the T/C is 101 % of control (dose: 100.0 mg/kg/injection, schedule: Q04DX002 (ip), vehicle: saline with Tween-80); 101 % of control (dose: 200.0 mg/kg/injection, schedule: Q04DX002 (ip), vehicle: saline with Tween-80); 97 % of control (dose: 400.0 mg/kg/injection, schedule: Q04DX002 (ip), vehicle: saline with Tween-80).

Take `CC(C)(C)C(=O)Oc1ccc(C(C)(C)C)cc1`: the T/C runs as follows: (dose: 100.0 mg/kg/injection, schedule: Q01DX009 (ip), vehicle: Klucel (hydroxypropylcellulose) (HPC)) 101 % of control; (dose: 100.0 mg/kg/injection, schedule: Q04DX003 (ip), vehicle: Klucel (hydroxypropylcellulose) (HPC)) 104 % of control; (dose: 200.0 mg/kg/injection, schedule: Q01DX009 (ip), vehicle: Klucel (hydroxypropylcellulose) (HPC)) 102 % of control; (dose: 200.0 mg/kg/injection, schedule: Q04DX003 (ip), vehicle: Klucel (hydroxypropylcellulose) (HPC)) 98 % of control; (dose: 400.0 mg/kg/injection, schedule: Q01DX009 (ip), vehicle: Klucel (hydroxypropylcellulose) (HPC)) 98 % of control; (dose: 400.0 mg/kg/injection, schedule: Q04DX003 (ip), vehicle: Klucel (hydroxypropylcellulose) (HPC)) 92 % of control.
